{
  "source": "ChEMBL document CHEMBL5726331",
  "about": "“Pyridinone and pyrimidinone derivatives as factor Xia” (2017)",
  "target": "Coagulation factor XI (Homo sapiens, UniProt P03951)",
  "sequence (P03951 19-387 limits assumed)": "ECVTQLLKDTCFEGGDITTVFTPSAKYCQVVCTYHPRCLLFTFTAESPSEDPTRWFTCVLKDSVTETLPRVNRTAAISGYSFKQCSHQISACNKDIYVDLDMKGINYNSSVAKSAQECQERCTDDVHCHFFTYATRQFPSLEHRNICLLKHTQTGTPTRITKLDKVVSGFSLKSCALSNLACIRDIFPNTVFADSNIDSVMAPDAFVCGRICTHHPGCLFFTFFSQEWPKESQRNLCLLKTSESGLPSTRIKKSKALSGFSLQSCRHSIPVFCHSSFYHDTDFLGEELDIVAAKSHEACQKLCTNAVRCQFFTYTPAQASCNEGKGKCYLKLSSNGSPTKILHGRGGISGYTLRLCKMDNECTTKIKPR",
  "sequence (P03951 388-625 limits assumed)": "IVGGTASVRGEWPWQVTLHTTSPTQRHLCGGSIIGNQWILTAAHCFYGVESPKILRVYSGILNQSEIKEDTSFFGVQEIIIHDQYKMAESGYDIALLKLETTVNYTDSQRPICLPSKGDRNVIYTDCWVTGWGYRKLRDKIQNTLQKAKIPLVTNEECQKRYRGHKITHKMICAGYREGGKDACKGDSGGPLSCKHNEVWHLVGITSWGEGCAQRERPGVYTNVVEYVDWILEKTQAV",
  "assay": "Enzyme Activity Assay: Human Factor XIa (Haematologic Technologies Inc.) activity was measured at an enzyme concentration of 0.1 U/mL in 150 mM NaCl, 5 mM KCl, 1 mg/mL PEG6000, 50 mM HEPES-NaOH (pH7.4) with 300 μM S-2366 (pyroGlu-Pro-Arg-pNA, Chromogenix).",
  "data": [
    {"smiles": "COC(=O)Nc1ccc(-c2[nH]c([C@H](C)NC(=O)/C=C/c3cc(Cl)ccc3-n3cnnn3)nc2Cl)cc1", "values": [
      {"measurement": "IC50", "value": 40, "unit": "nM"}
    ]},
    {"smiles": "COC(=O)Nc1ccc(-c2[nH]c(CNC(=O)/C=C/c3cc(Cl)ccc3-n3cnnn3)nc2Cl)cc1", "values": [
      {"measurement": "IC50", "value": 130, "unit": "nM"}
    ]}
  ]
}
